{
  "source": "patent US8008009B2",
  "about": "“Method for ProNGF assay for in vitro diagnosis of cancer in particular breast, thyroid or lung cancer and therapeutic use of ProNGF” (Biomerieux, priority 2006, dated 2011)",
  "assay_type_in_all_cases": "cell-based, human",
  "key": {"MCF-7 cells [1]": {"test_system": "MCF-7 cells", "experiment": "Boyden chamber (Transwell) migration test", "conditions": "200 ng/mL in lower chamber, starving medium, 24 h, compared with starving medium alone", "description": "(§1) A “starving” medium was used, “starving” denoting a medium identical to the complete medium but without serum and supplemented with 2 μg/mL of fibronectin and 30 μg/mL of transferrin. For the various biological activity measurements, the various test molecules (ProNGF, NGF and galardin) are added to this starving medium. During the treatments, the media are renewed every 24 hours.\n(§2) The migration and invasion tests are carried out as previously described by Bracke et al. (1999, J Natl Cancer Inst, 91: 354-359). The protocols for using Boyden chambers and for invasion in collagen gel are described below.\n12-well plates containing Transwells® with a pore diameter of 12 μm are equilibrated with starving medium and placed at 37° C. under 5% CO2 for 2 hours. The medium is then drawn off and replaced, in the lower chamber, by starving medium with the various test molecules, whereas, in the upper chamber, 40 000 cells are seeded in starving medium alone. […] Each condition is carried out in duplicate; a minimum of 40 fields is counted for each condition. […]\nThe effects of ProNGF on the migration of mammary epithelial cells were comprehended by means of tests in Boyden chambers (Transwell®). Each condition was carried out in duplicate and a minimum of 40 fields was counted. […] The cells having crossed the Transwell® were then counted. *p<0.05, comparison with the starving medium alone condition."}, "MCF-7 cells [2]": {"test_system": "MCF-7 cells", "experiment": "Collagen type I gel invasion test", "conditions": "200 ng/mL, starving medium, 24 h", "description": "as §1, §2\nThe collagen type I gel is prepared in the following way: 2.1 mL of collagen Type I, 0.8 mL of EMEM (10×), 4.6 mL of PBS, 0.8 mL of NaHCO3 at 0.25 M and 0.15 mL of 1 M NaOH. 1.25 mL are deposited in the wells of a 6-well plate. Once the gel has solidified, 100 000 cells are seeded with starving medium and the various test molecules for 24 hours. The cells are subsequently counted and the invasion index is determined (number of deep cells related to the number of cells at the surface). Each condition is carried out in triplicate and a minimum of 45 fields is counted per condition.\nThe invasive capacity of the ProNGF-stimulated MCF-7 cells was tested in collagen type I gel. Each condition is carried out in triplicate and a minimum of 45 fields is counted per condition. […]"}, "ProNGF": {"test_system": "ProNGF", "experiment": "Anti-ProNGF Western blotting after siRNA transfection, densitometry", "conditions": "MCF-7 cells, 3 μg siRNA", "description": "The MCF-7 cells are passaged 3-4 days before transfection, so as to reach 50% confluence at the time of the experiment. Two million cells are taken up in 100 μl of Nucleofector Kit V solution and 3 μg of siRNA are added. The transfection program used on the Nucleofector is E-14. Anti-ProNGF Western blotting is carried out on the lysates recovered after 24 hours or after 48 hours, according to the protocol described in point 2.1. The relative amount of ProNGF detected by blotting is evaluated with the QuantityOne software (Bio-Rad), related to the equal loading (actin) and presented in the form of a histogram where 100% is assigned to the siGFP control condition.\nThe MCF-7 cells were transfected with 3 μg interfering RNA (siRNA) directed against GFP (siGFP) or against ProNGF (siProNGF). After 24 to 48 h of culture, the cells were lysed and ProNGF Western blotting was carried out. The relative amount of ProNGF detected by blotting was evaluated with the QuantityOne software (Bio-Rad) related to the actin equal loading and presented in the form of a histogram where 100% is assigned to the siGFP control condition (FIG. 10). […] Densitometric analysis made it possible to evaluate this decrease at 59% after 24 h of transfection."}, "MDA-MB-231 cells": {"test_system": "MDA-MB-231 cells", "experiment": "Cell proliferation (cell count) after siRNA transfection", "conditions": "3 μg siRNA, EMEM culture medium, counted at 24, 48 and 96 h; Mock and siGFP controls double between 24 and 48 h", "description": "The interfering RNA (siRNA) transfection experiments were carried out with the Cell Line Nucleofector kit from Amaxa and the corresponding electroporation apparatus. This system makes it possible to obtain a high efficiency of gene transfer to the nucleus (nucleofection).\nThe MDA-MB-231 cells are passaged 2 days before the transfection, so as to reach 80% confluence at the time of the experiment. The cells to be transfected are trypsinized and then counted. The cell pellet (1 million cells) is taken up in 100 μl of Nucleofector Kit V solution and 3 μg of siRNA are added. This cell suspension is transferred into an electroporation cuvette, placed in the Amaxa apparatus and electroporated according to the X-13 program. The cells are subsequently put back in culture in a well of a 6-well plate for 24-72 h. The cell proliferation is followed over time and the cells are counted at regular time intervals. Anti-Sortilin Western blotting is carried out on the lysates recovered at various times, according to the protocol described in the previous paragraph, “Expression of Sortilin”.\nMDA-MB-231 cells maintained in the EMEM culture medium were transfected either with culture medium alone (Mock), or with an interfering RNA directed against the GFP protein (siGFP) or with an interfering RNA directed against Sortilin (siSORT)."}, "Sortilin": {"test_system": "Sortilin", "experiment": "Anti-Sortilin Western blotting after siRNA transfection", "conditions": "MDA-MB-231 cells transfected with siRNA", "description": "For the Western blotting, the membranes are saturated with 4% bovine serum albumin in a solution of TBS (Tris Buffered Saline) 0.1% Tween 20 (17.54 g NaCl, 2.42 g Tris, 2 mL tween 20, QS 2 L, pH adjusted to 7.4) at ambient temperature for 2 hours. After saturation, the membranes are incubated overnight at 4° C. with the various primary antibodies: anti-Sortilin (BD612101 from BD Biosciences) at 1:2000, anti-Actin (A-2066 from Sigma) at 1:5000 in the saturation solution. After rinsing with TBS 0.1% Tween 20, the membranes are incubated for 1 hour at ambient temperature with an anti-rabbit secondary antibody (A-1949 from Sigma, France) coupled to horseradish peroxidase, at 1:20000 in the saturation solution. After rinsing, visualization is carried out with the ECL system (Pierce Interchim, France) according to the recommended data for use.\nThe MDA-MB-231 cells are passaged 2 days before the transfection, so as to reach 80% confluence at the time of the experiment. The cells to be transfected are trypsinized and then counted. The cell pellet (1 million cells) is taken up in 100 μl of Nucleofector Kit V solution and 3 μg of siRNA are added. This cell suspension is transferred into an electroporation cuvette, placed in the Amaxa apparatus and electroporated according to the X-13 program. […] The cell proliferation is followed over time and the cells are counted at regular time intervals. […]"}},
  "data": [
    {"substance": "ProNGF: human recombinant nerve growth factor precursor sold by SCIL proteins", "values": [
      {"measurement": "cell migration", "setting": "MCF-7 cells [1]", "result": "increase their ability to migrate"},
      {"measurement": "invasion (invasion index)", "setting": "MCF-7 cells [2]", "result": "stimulates MCF-7 invasion"}
    ]},
    {"substance": "siProNGF: interfering RNA directed against ProNGF; double-stranded RNA of SEQ ID No.5 and SEQ ID No.6 (chain 1 CAGUGUAUUCAAACAGUAUNN; chain 2 GUACUGUUUGAAUACACUGNN; listed as RNA, chemistry not given here)", "values": [
      {"measurement": "expression of the ProNGF protein (photographs of the blots)", "setting": "ProNGF; 24 to 48 h of culture", "result": "decreases the expression of the ProNGF protein"},
      {"measurement": "decrease in expression of ProNGF (densitometric analysis)", "setting": "ProNGF; after 24 h of transfection, 100% assigned to siGFP control, related to actin", "result": 59, "unit": "%"}
    ]},
    {"substance": "siSORT: interfering RNA which decreases the expression of Sortilin; double-stranded RNA of SEQ ID No.3 and SEQ ID No.4 (chain 1 GGUGGUGUUAACAGCAGAGNN; chain 2 CUCUGCUGUUAACACCACCNN; listed as RNA, chemistry not given here)", "values": [
      {"measurement": "number of MDA-MB-231 cells in culture over time", "setting": "MDA-MB-231 cells", "result": "does not increase over time"},
      {"measurement": "level of expression of the Sortilin protein", "setting": "Sortilin", "result": "decreased the level of expression of the Sortilin protein"}
    ]},
    {"substance": "NGF: recombinant nerve growth factor obtained from R&D systems", "values": [
      {"measurement": "cell migration", "setting": "MCF-7 cells [1]", "result": "increase their ability to migrate, in a similar manner to NGF"}
    ]}
  ]
}
